Data published in publication PMC11845477, “Exploring the principles behind antibiotics with limited resistance” (Nature Communications, 2025).

Legend:
[1] = tested on: E. coli ATCC 25922 (SEN) and E. coli NCTC13846 (MDR); assay: Frequency-of-resistance (FoR) assay, relative MIC of mutants; format: cell-based, Escherichia coli
Method in brief: (§1)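 Spontaneous resistant mutants selected on antibiotic agar (≈10^10 cells, 48 h, 37 °C); MICs of ten picked colonies measured by 18 h broth microdilution (OD600 < 0.05 = inhibition) and expressed as MICevolved/MICancestor.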

[2] = tested on: K. pneumoniae ATCC 10031 (SEN) and K. pneumoniae ATCC 700603 (MDR); assay: as above; format: cell-based, Klebsiella pneumoniae; conditions: Klebsiella pneumoniae ATCC 10031 (KP-SEN)
Method in brief: as §1

[3] = tested on: A. baumannii ATCC 17978 (SEN) and A. baumannii ATCC BAA-1605 (MDR); assay: Adaptive laboratory evolution (ALE), relative MIC of evolved lines; format: cell-based, Acinetobacter baumannii
Method in brief: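 Ten parallel populations per antibiotic–ancestor pair were evolved in MHB at 37 °C, starting near 50% growth-inhibiting drug. Every 72 h they were passaged into 0.5–2.5× increasing concentrations, keeping the highest-drug well with OD600 > 0.2.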

[4] = AB-MDR (Acinetobacter baumannii ATCC BAA 1605), evolved line 2
[5] = AB-MDR (Acinetobacter baumannii ATCC BAA 1605), evolved line 5
[6] = AB-MDR (Acinetobacter baumannii ATCC BAA 1605), evolved line 7
[7] = AB-MDR (Acinetobacter baumannii ATCC BAA 1605), evolved line 9
[8] = AB-MDR (Acinetobacter baumannii ATCC BAA 1605), evolved line 10
[9] = AB-SEN (Acinetobacter baumannii ATCC 17978), evolved line 4
[10] = AB-SEN (Acinetobacter baumannii ATCC 17978), evolved line 6
[11] = AB-SEN (Acinetobacter baumannii ATCC 17978), evolved line 8
[12] = AB-SEN (Acinetobacter baumannii ATCC 17978), evolved line 9
[13] = AB-SEN (Acinetobacter baumannii ATCC 17978), evolved line 10

CC(C)c1ccc(Cn2ccc3c4c(N)nc(NC5CC5)nc4ccc32)cc1 [SCH79797] was tested, and the MIC of evolved line ([1]; E. coli ATCC 25922 (EC-SEN), evolved line 1) was 8 µg/mL, the “Relative MIC” value ([1]; E. coli ATCC 25922 (EC-SEN), evolved line 1, evolved vs ancestor) was 2 and the MIC of evolved line ([1]; E. coli ATCC 25922 (EC-SEN), evolved line 2) was 8 µg/mL. For the same compound, the “Relative MIC” value ([1]; E. coli ATCC 25922 (EC-SEN), evolved line 2, evolved vs ancestor) was 2, the MIC of evolved line ([1]; E. coli ATCC 25922 (EC-SEN), evolved line 3) was 8 µg/mL and the “Relative MIC” value ([1]; E. coli ATCC 25922 (EC-SEN), evolved line 3, evolved vs ancestor) was 2. The “Relative MIC” value ([1]; FoR assay, Escherichia coli ATCC 25922 (EC-SEN), evolved line 1) was 2, the “Relative MIC” value ([1]; FoR assay, Escherichia coli ATCC 25922 (EC-SEN), evolved line 2) was 2 and the “Relative MIC” value ([1]; FoR assay, Escherichia coli ATCC 25922 (EC-SEN), evolved line 3) was 2. For the same compound, the “Relative MIC” value ([2]; FoR assay, evolved line 1) was 1, the “Relative MIC” value ([2]; FoR assay, evolved line 2) was 1 and the “Relative MIC” value ([2]; FoR assay, evolved line 3) was 1. It also gave an MIC of evolved line ([2]; evolved line 1) of 4 µg/mL, an MIC of evolved line ([2]; evolved line 2) of 4 µg/mL and an MIC of evolved line ([2]; evolved line 3) of 4 µg/mL. The “Relative MIC” value ([2]; evolved line 1 versus ancestor) was 1, the “Relative MIC” value ([2]; evolved line 2 versus ancestor) was 1 and the “Relative MIC” value ([2]; evolved line 3 versus ancestor) was 1. The MIC of evolved line ([3]; AB-MDR (A. baumannii ATCC BAA 1605), evolved line 2 of the given antibiotic) was 8 µg/mL, the “Relative MIC” value ([3]; AB-MDR (A. baumannii ATCC BAA 1605), evolved line 2 vs ancestor) was 2 and the MIC of evolved line ([3]; AB-MDR (A. baumannii ATCC BAA 1605), evolved line 5 of the given antibiotic) was 8 µg/mL. For the same compound, the “Relative MIC” value ([3]; AB-MDR (A. baumannii ATCC BAA 1605), evolved line 5 vs ancestor) was 2, the MIC of evolved line ([3]; AB-MDR (A. baumannii ATCC BAA 1605), evolved line 7 of the given antibiotic) was 16 µg/mL and the “Relative MIC” value ([3]; AB-MDR (A. baumannii ATCC BAA 1605), evolved line 7 vs ancestor) was 4. The MIC of evolved line ([3]; AB-MDR (A. baumannii ATCC BAA 1605), evolved line 9 of the given antibiotic) was 8 µg/mL, the “Relative MIC” value ([3]; AB-MDR (A. baumannii ATCC BAA 1605), evolved line 9 vs ancestor) was 2 and the MIC of evolved line ([3]; AB-MDR (A. baumannii ATCC BAA 1605), evolved line 10 of the given antibiotic) was 8 µg/mL. The “Relative MIC” value ([3]; AB-MDR (A. baumannii ATCC BAA 1605), evolved line 10 vs ancestor) was 2, the “Relative MIC” value [3, 4] was 2 and the “Relative MIC (log10)” value [3, 4] was 0.301 log10. For the same compound, the “Relative MIC” value [3, 5] was 2, the “Relative MIC (log10)” value [3, 5] was 0.301 log10 and the “Relative MIC” value [3, 6] was 4. For the same compound, the “Relative MIC (log10)” value [3, 6] was 0.6021 log10, the “Relative MIC” value [3, 7] was 2 and the “Relative MIC (log10)” value [3, 7] was 0.301 log10. For the same compound, the “Relative MIC” value [3, 8] was 2, the “Relative MIC (log10)” value [3, 8] was 0.301 log10 and the MIC of evolved line ([3]; AB-SEN (A. baumannii ATCC 17978), evolved line 2 of the given antibiotic) was 4 µg/mL. For the same compound, the “Relative MIC” value ([3]; AB-SEN (A. baumannii ATCC 17978), evolved line 2 vs ancestor) was 1, the MIC of evolved line ([3]; AB-SEN (A. baumannii ATCC 17978), evolved line 4 of the given antibiotic) was 8 µg/mL and the “Relative MIC” value ([3]; AB-SEN (A. baumannii ATCC 17978), evolved line 4 vs ancestor) was 2. For the same compound, the MIC of evolved line ([3]; AB-SEN (A. baumannii ATCC 17978), evolved line 6 of the given antibiotic) was 8 µg/mL, the “Relative MIC” value ([3]; AB-SEN (A. baumannii ATCC 17978), evolved line 6 vs ancestor) was 2 and the MIC of evolved line ([3]; AB-SEN (A. baumannii ATCC 17978), evolved line 8 of the given antibiotic) was 8 µg/mL. For the same compound, the “Relative MIC” value ([3]; AB-SEN (A. baumannii ATCC 17978), evolved line 8 vs ancestor) was 2, the MIC of evolved line ([3]; AB-SEN (A. baumannii ATCC 17978), evolved line 9 of the given antibiotic) was 8 µg/mL and the “Relative MIC” value ([3]; AB-SEN (A. baumannii ATCC 17978), evolved line 9 vs ancestor) was 2. For the same compound, the MIC of evolved line ([3]; AB-SEN (A. baumannii ATCC 17978), evolved line 10 of the given antibiotic) was 8 µg/mL, the “Relative MIC” value ([3]; AB-SEN (A. baumannii ATCC 17978), evolved line 10 vs ancestor) was 2 and the “Relative MIC” value ([3]; AB-SEN (Acinetobacter baumannii ATCC 17978), evolved line 2) was 1. For the same compound, the “Relative MIC” value [3, 9] was 2, the “Relative MIC (log10)” value [3, 9] was 0.301 log10 and the “Relative MIC” value [3, 10] was 2. For the same compound, the “Relative MIC (log10)” value [3, 10] was 0.301 log10, the “Relative MIC” value [3, 11] was 2 and the “Relative MIC (log10)” value [3, 11] was 0.301 log10. For the same compound, the “Relative MIC” value [3, 12] was 2, the “Relative MIC (log10)” value [3, 12] was 0.301 log10 and the “Relative MIC” value [3, 13] was 2. The “Relative MIC (log10)” value [3, 13] was 0.301 log10, the “Relative MIC” value ([3]; ALE, Acinetobacter baumannii ATCC 17978 (AB-SEN), evolved line 2) was 1 and the “Relative MIC” value ([3]; ALE, Acinetobacter baumannii ATCC 17978 (AB-SEN), evolved line 4) was 2. The “Relative MIC” value ([3]; ALE, Acinetobacter baumannii ATCC 17978 (AB-SEN), evolved line 6) was 2, the “Relative MIC” value ([3]; ALE, Acinetobacter baumannii ATCC 17978 (AB-SEN), evolved line 8) was 2 and the “Relative MIC” value ([3]; ALE, Acinetobacter baumannii ATCC 17978 (AB-SEN), evolved line 9) was 2. For the same compound, the “Relative MIC” value ([3]; ALE, Acinetobacter baumannii ATCC 17978 (AB-SEN), evolved line 10) was 2, the “Relative MIC” value ([3]; ALE, Acinetobacter baumannii ATCC BAA 1605 (AB-MDR), evolved line 2) was 2 and the “Relative MIC” value ([3]; ALE, Acinetobacter baumannii ATCC BAA 1605 (AB-MDR), evolved line 5) was 2. The “Relative MIC” value ([3]; ALE, Acinetobacter baumannii ATCC BAA 1605 (AB-MDR), evolved line 7) was 4, the “Relative MIC” value ([3]; ALE, Acinetobacter baumannii ATCC BAA 1605 (AB-MDR), evolved line 9) was 2 and the “Relative MIC” value ([3]; ALE, Acinetobacter baumannii ATCC BAA 1605 (AB-MDR), evolved line 10) was 2. For the same compound, the “Relative MIC” value ([3]; Acinetobacter baumannii ATCC 17978 (AB-SEN), evolved line 2) was 1, the “Relative MIC” value ([3]; Acinetobacter baumannii ATCC 17978 (AB-SEN), evolved line 4) was 2 and the “Relative MIC” value ([3]; Acinetobacter baumannii ATCC 17978 (AB-SEN), evolved line 6) was 2. For the same compound, the “Relative MIC” value ([3]; Acinetobacter baumannii ATCC 17978 (AB-SEN), evolved line 8) was 2, the “Relative MIC” value ([3]; Acinetobacter baumannii ATCC 17978 (AB-SEN), evolved line 9) was 2 and the “Relative MIC” value ([3]; Acinetobacter baumannii ATCC 17978 (AB-SEN), evolved line 10) was 2. The “Relative MIC” value ([3]; Acinetobacter baumannii ATCC BAA 1605 (AB-MDR), evolved line 2) was 2, the “Relative MIC” value ([3]; Acinetobacter baumannii ATCC BAA 1605 (AB-MDR), evolved line 5) was 2 and the “Relative MIC” value ([3]; Acinetobacter baumannii ATCC BAA 1605 (AB-MDR), evolved line 7) was 4. The “Relative MIC” value ([3]; Acinetobacter baumannii ATCC BAA 1605 (AB-MDR), evolved line 9) was 2 and the “Relative MIC” value ([3]; Acinetobacter baumannii ATCC BAA 1605 (AB-MDR), evolved line 10) was 2.
